Test results taken from patent US20080207716A1, “Formulations and Dosing Regiment for Ppar-Alpha Modulators” (Eli Lilly and Company Patent Division, priority 2005, published 2008).

Key:
Format in all cases: in vivo, human
[1] = tested on: healthy obese men and women; test: Safety and tolerability assessment, SDSS clinical study; details: single oral doses 30 and 60 mg
Description: (§1) A single-blinded, single- (SDSS) and multiple-dose (MDSS), placebo-controlled, dose-escalation study is designed to evaluate the safety, pharmacokinetics, and pharmacodynamics of orally administered study drug in healthy obese men and women. Three different groups of subjects complete a one-step escalation of the study drug dose within Periods 1 and 2 (SDSS). The design includes a total of 6 active doses (0.1, 1, 10, 30, 60, and 100 mg) to be tested. The decision to escalate to higher doses is based on the safety assessment of preceding doses. The minimum time between dose escalations within Periods 1 and 2 is one week.
Safety is assessed throughout the study by physical examination, adverse event monitoring, electrocardiograms, clinical laboratory tests, and vital sign measurements. Pharmacodynamic evaluation includes a postprandial lipid response during the single-dose safety portion. During the multiple-dose safety study, the pharmacodynamic evaluation includes an oral glucose tolerance test, a fasting lipid panel and a postprandial lipid test. […] C-reactive protein (CRP) and adiponectin are measured as biomarkers for inflammation and peroxisome proliferated agonist receptor (PPAR) gamma activity, respectively. […]

[2] = tested on: healthy obese men and women; test: Meal tolerance test in the single-dose (SDSS) portion of the clinical study; details: for Triglyceride AUEC(24-37) geometric mean (95% CI): 24-37 h post dose, placebo 44.6
Text: as §1, with “The design includes a total of 6 active doses (0.1, 1, 10, 30, 60, and 100 mg) to be tested.” left out
(§2) Safety is assessed throughout the study by physical examination, adverse event monitoring, electrocardiograms, clinical laboratory tests, and vital sign measurements. Pharmacodynamic evaluation includes a postprandial lipid response during the single-dose safety portion. During the multiple-dose safety study, the pharmacodynamic evaluation includes an oral glucose tolerance test, a fasting lipid panel and a postprandial lipid test. The static lipid panel included triglycerides, total cholesterol, low-density lipoprotein cholesterol [LDL-C], high-density lipoprotein cholesterol [HDL-C], Apoliproteins A1, A2, B, and C3 for cholesterol metabolism. C-reactive protein (CRP) and adiponectin are measured as biomarkers for inflammation and peroxisome proliferated agonist receptor (PPAR) gamma activity, respectively. The dynamic lipid tests include post-prandial measurements of glucose and triglycerides.
A meal tolerance test (MTT) was performed from 24 to 37 hours after each single dose during the SDSS portion of a clinical trial conducted substantially as described herein by Example 1 using LY518674 as the study drug. The data are analyzed by calculating an area under the concentration-time curve for triglycerides, nonesterified fatty acids and glucose over the postprandial periods from breakfast to lunch (area under the effect curve [AUEC{24-28}]), after lunch (AUEC[28-37]), and the entire test period (AUEC[24-37]).

[3] = Pharmacokinetics after oral single- and multiple-dose administration
Description: as §1
(§3) Each of the 3 groups of subjects consist of approximately 9 subjects in a 2:1 ratio of active treatment to placebo, where the order of placebo administration is randomized across both the SDSS and MDSS portions of the study. All 3 groups of subjects shall be scheduled to participate in both SDSS and MDSS portions. However, the SDSS portion is completed and analyzed several months prior to beginning the MDSS (Period 3/4). The 45-day MDSS portion of the original study is designed to test 4 active doses (0.025, 0.1, 1 and 10 mg) administered daily for the first 14 days of the study. The MDSS portion recruits subjects to form 4 groups of subjects. Approximately 36 subjects (9 per dose group) are enrolled into the MDSS portion of the study.
The median time at maximal concentration (tmax) was approximately 0.5 to 1 hour. The exposure appeared dose-proportional within the studied range.

[4] = tested on: healthy obese subjects; test: Fasting lipid panel, MDSS clinical study (14 days daily dosing, 30 day follow up)
Text: FIG. 1. FIG. 1 illustrates the time profile of percentage change from baseline for LDL-C following the administration of daily oral doses of LY518674 over 14 days and 30 day follow up afterwards, in healthy obese subjects in MDSS of a study conducted substantially as described by Example 1.
as §3, §2

[5] = tested on: healthy obese men and women; test: Lipid pharmacodynamics (LDL-C, ApoB, ApoC), SDSS clinical study
Text: as §1, with “The design includes a total of 6 active doses (0.1, 1, 10, 30, 60, and 100 mg) to be tested.” left out
as §2, with “The dynamic lipid tests include post-prandial measurements of glucose and triglycerides.” left out

half-life ([3]; both sexes, human, in vivo, oral, as stated in MDSS results): ~10 h
half-life ([3]; both sexes, human, in vivo, oral, as stated in SDSS/PK results): < 10 h
Tmax ([3]; both sexes, human, in vivo, oral, healthy obese subjects, read-out: Median time at maximal concentration (tmax)): 0.5 to 1 h
Time to steady-state exposure ([3]; daily oral dosing): ≤ 2 days
Mean accumulation ratio ([3]; daily oral dosing, steady state): no more than 1.35
Absorption after oral administration ([3]; healthy obese subjects): rapidly absorbed
Pharmacokinetics following single- versus multiple-dose administration ([3]; in vivo): No differences
Exposure versus dose ([3]; within the studied dose range): dose-proportional
SMILES: Cc1ccc(Cn2nc(CCCc3ccc(OC(C)(C)C(=O)O)cc3)[nH]c2=O)cc1 [LY518674, Propanoic Acid, 2-[4-[3-[2,5-dihydro-1-[(4-methylphenyl)methyl]-5-oxo-1H-1,2,4-triazol-3-yl]propyl]phenoxy]-2-methyl-]
Tolerability finding prohibiting administration of higher doses [1]: Gastrointestinal intolerance
Lowest dose providing a pharmaceutically desirable effect ([2]; single dose study): 100 µg
Effect on triglyceride (TG) AUEC ([2]; single dose, meal tolerance test 24 to 37 hours post dose): rapid and profound reduction
Dose at which maximum TG AUEC reduction is approached ([2]; single oral dose): approximately 1 mg
Triglyceride AUEC(24-37) geometric mean (95% CI) ([2]; single oral dose 0.01 mg): 37.8 (31.2, 45.8) mmol · hr/L
Triglyceride AUEC(24-37) ratio of geometric means, dose vs. placebo (95% CI) ([2]; single oral dose 0.01 mg, p 0.083): 0.85 (0.70, 1.02) [0.083]
Triglyceride AUEC(24-37) geometric mean (95% CI) ([2]; single oral dose 0.1 mg): 27.6 (23.0, 33.2) mmol · hr/L
Triglyceride AUEC(24-37) ratio of geometric means, dose vs. placebo (95% CI) ([2]; single oral dose 0.1 mg, p <.001): 0.62 (0.52, 0.74) [<.001*]
Triglyceride AUEC(24-37) geometric mean (95% CI) ([2]; single oral dose 1 mg): 23.9 (20.0, 28.6) mmol · hr/L
Triglyceride AUEC(24-37) ratio of geometric means, dose vs. placebo (95% CI) ([2]; single oral dose 1 mg, p <.001): 0.54 (0.45, 0.64) [<.001*]
Triglyceride AUEC(24-37) geometric mean (95% CI) ([2]; single oral dose 10 mg): 24.3 (20.1, 29.5) mmol · hr/L
Triglyceride AUEC(24-37) ratio of geometric means, dose vs. placebo (95% CI) ([2]; single oral dose 10 mg, p <.001): 0.55 (0.45, 0.67) [<.001*]
Triglyceride AUEC(24-37) geometric mean (95% CI) ([2]; single oral dose 30 mg): 20.0 (16.3, 24.5) mmol · hr/L
Triglyceride AUEC(24-37) ratio of geometric means, dose vs. placebo (95% CI) ([2]; single oral dose 30 mg, p <.001): 0.45 (0.37, 0.54) [<.001*]
Triglyceride AUEC(24-37) geometric mean (95% CI) ([2]; single oral dose 60 mg): 25.2 (20.6, 30.7) mmol · hr/L
Triglyceride AUEC(24-37) ratio of geometric means, dose vs. placebo (95% CI) ([2]; single oral dose 60 mg, p <.001): 0.56 (0.46, 0.69) [<.001*]
Lowest dose providing a pharmaceutically desirable effect ([4]; MDSS study): 25 µg
Maintenance of pharmacological effect after dosing stopped ([4]; after 14 days daily dosing): ~14 days
Time for all parameters to return to baseline after cessation of dosing ([4]; after 14 days daily dosing): ≤ 2 weeks
LDL-C change ([4]; daily oral doses 0.025, 0.1, 1 and 10 mg for 14 days, all doses similar magnitude): dramatically reduced
ApoB and ApoC change ([5]; SDSS, oral): decreased in a fashion similar to that seen for LDL-C changes
LDL-C change ([5]; single oral dose 0.01 mg): LDL-C reduction consistent with the reduction observed at the higher doses
